The target in data set [1] is T1, Cytochrome P450 2B6 (Homo sapiens, UniProt P20813).
T1 sequence (P20813 whole entry): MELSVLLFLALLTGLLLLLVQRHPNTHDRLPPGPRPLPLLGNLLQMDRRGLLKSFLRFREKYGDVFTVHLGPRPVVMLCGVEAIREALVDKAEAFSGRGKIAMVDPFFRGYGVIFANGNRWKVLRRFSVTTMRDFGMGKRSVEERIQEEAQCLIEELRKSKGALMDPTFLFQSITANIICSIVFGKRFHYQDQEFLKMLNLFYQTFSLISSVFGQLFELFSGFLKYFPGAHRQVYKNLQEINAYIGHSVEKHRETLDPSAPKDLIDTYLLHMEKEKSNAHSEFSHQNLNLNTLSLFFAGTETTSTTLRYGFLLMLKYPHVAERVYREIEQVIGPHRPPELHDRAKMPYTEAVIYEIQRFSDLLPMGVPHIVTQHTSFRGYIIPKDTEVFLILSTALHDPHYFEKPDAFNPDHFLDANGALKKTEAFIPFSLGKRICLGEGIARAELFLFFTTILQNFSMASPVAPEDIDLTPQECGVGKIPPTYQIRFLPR
The experiment in a line: Drug metabolism assessed as CYP2B6 (unknown origin)-mediated d4-BuOH metabolite formation by measuring km. The data set is classed as ADME.

Data set [2] has as its target T1, Cytochrome P450 2B6. Briefly: Drug metabolism assessed as CYP2B6 (unknown origin)-mediated d4-BuOH metabolite formation by measuring Kcat. The format is ADME.
Data set [3] has as its target T1, Cytochrome P450 2B6. The experiment in a line: Binding affinity to recombinant CYP2B6 (unknown origin) assessed as spectral dissociation constant-1. To be noted: read-out: Ks.
Data set [4] deals with T1, Cytochrome P450 2B6. The experiment in a line: Binding affinity to recombinant CYP2B6 (unknown origin) assessed as spectral dissociation constant-2. As to conditions: read-out: Ks.
Data set [5] addresses T1, Cytochrome P450 2B6. The experiment in a line: Drug metabolism assessed as CYP2B6 (unknown origin)-mediated d9-BuOH metabolite formation by measuring km. The format is ADME.
Data set [6] concerns the target T1, Cytochrome P450 2B6. The experiment in a line: Drug metabolism assessed as CYP2B6 (unknown origin)-mediated d9-BuOH metabolite formation by measuring Kcat. The format is ADME.
The target of data set [7] is T1, Cytochrome P450 2B6. The experiment in a line: Drug metabolism assessed as CYP2B6 (unknown origin)-mediated metabolite formation by measuring km. The data set is classed as ADME.
The target of data set [8] is T1, Cytochrome P450 2B6. The experiment in a line: Drug metabolism assessed as CYP2B6 (unknown origin)-mediated metabolite formation by measuring Kcat. The data set is classed as ADME.

Five molecules from ChEMBL document CHEMBL5214950 (Bioorg Med Chem Lett, 2022) can be followed below.

Usually Km stands for the substrate concentration at which the rate is half of its maximum. Take `[2H]C([2H])([2H])[C@]([2H])(NC(C)(C)C)C(=O)c1cccc(Cl)c1`: on Cytochrome P450 2B6 [1], the Km turned out to be 131 µM. Also, the Kcat at Cytochrome P450 2B6 [2] came out at 0.05578 s⁻¹. Moreover, the Kd at Cytochrome P450 2B6 [3] came out at 2870 µM.

Take `[2H]C([2H])([2H])C(N[C@@]([2H])(C)C(=O)c1cccc(Cl)c1)(C([2H])([2H])[2H])C([2H])([2H])[2H]`: the Kd came out at 1140 µM on Cytochrome P450 2B6 [4] and 10.3 µM on Cytochrome P450 2B6 [3]. At Cytochrome P450 2B6 [5], the Km stood at 279 µM. The Kcat at Cytochrome P450 2B6 [6] amounted to 0.02462 s⁻¹.

For the molecule `CC(NC(C)(C)C)C(=O)c1cccc(Cl)c1` (racemic) [BUPROPION], at Cytochrome P450 2B6 [7], the Km amounted to 94.7 µM. For the same molecule, on Cytochrome P450 2B6 [3], the Kd worked out at 314 µM. Besides, the Kcat on Cytochrome P450 2B6 [8] stood at 0.14 s⁻¹.

In the case of `[2H]C([2H])([2H])[C@@]([2H])(NC(C)(C)C)C(=O)c1cccc(Cl)c1`, the Km at Cytochrome P450 2B6 [1] stood at 266 µM. On Cytochrome P450 2B6 [2], the Kcat came to 0.061 s⁻¹. Moreover, on Cytochrome P450 2B6 [3], the Kd turned out to be 11300 µM.

As to `[2H]C([2H])([2H])C(N[C@]([2H])(C)C(=O)c1cccc(Cl)c1)(C([2H])([2H])[2H])C([2H])([2H])[2H]`, the Kd at Cytochrome P450 2B6 [4] is 1180 µM; on Cytochrome P450 2B6 [3] it was 3.91 µM. In addition, at Cytochrome P450 2B6 [5], the Michaelis constant (Km) was determined as 264 µM. The Kcat at Cytochrome P450 2B6 [6] came out at 0.003865 s⁻¹.
